The results in this text go back to US5091370A, “Angolamycin derivatives” (Sanraku Incorporated, priority 1989, dated 1992).

A short description of the data set: Stability test against a mouse liver homogenate. The format is in vitro ADME, ICR-strain mice. As to conditions: mouse liver homogenate supernatant, pH 7.2, 37° C., unchanged product remaining by TLC/chromatoscanner (283 nm), read-out: Residual activity ratio (%). Here is the method:
The livers of ICR-strain mice were homogenized together with 5 times their amount of 0.1M phosphate buffer (pH 7.2) in a Potter homogenizer (3000 rpm, 10 minutes). One ml of 500 micrograms/ml of a test compound (10% methanol water) was added to the supernatant (1 ml) of the homogenate, and reacted at 37° C. for 1 hour. The mixture was heated at 100° C. of 3 minutes. Then, 1 ml of 0.1M phosphate buffer (pH 9.0) was added, and the mixture was extracted with 1 ml of ethyl acetate, organic layer was subjected to silica gel thin-layer chromatography (chloroform/methanol/ammonia=15/1.2/0.1), and by a chromatoscanner (283 nm), the ratio of an unchanged product and a hydrolyzed product formed was determined. The amount of the unchanged product remaining was expressed by percentage.
In the case of `CCC1OC(=O)CC(O)C(C)C(OC2CC(N(C)C)C(OC3CC(C)(O)C(OC(=O)Cc4ccc(OC)cc4)C(C)O3)C(C)O2)C(CC=O)CC(C)C(=O)/C=C/C2(C)OC2C1COC1OC(C)C(O)C(OC)C1OC` (stereo not drawn) [Compound (2), 4"-O-(p-methoxyphenylacetyl)-angolamycin], the remaining at 1 h came out at 95%.
`CCC1OC(=O)CC(O)C(C)C(OC2CC(N(C)C)C(OC3CC(C)(O)C(OC(=O)Cc4ccc(C(C)=O)cc4)C(C)O3)C(C)O2)C(CC=O)CC(C)C(=O)/C=C/C2(C)OC2C1COC1OC(C)C(O)C(OC)C1OC` (stereo not drawn) [Compound (1), 4"-O-(p-acetylphenylacetyl)-angolamycin]: the remaining at 1 h turned out to be 94%.
The same measure for `CCC1OC(=O)CC(O)C(C)C(OC2CC(N(C)C)C(OC3CC(C)(O)C(OC(=O)CC(C)C)C(C)O3)C(C)O2)C(CC=O)CC(C)C(=O)/C=C/C2(C)OC2C1COC1OC(C)C(O)C(OC)C1OC` (stereo not drawn) [Control compound (1), 4"-O-isovaleryl angola-mycin, reference compound]: 55%.
